Measurements reported in patent US8492559B2, “Substituted indole compounds” (Gruenenthal GmbH, priority 2009, dated 2013).

Target: T1, human B1R receptor (hB1R) (Homo sapiens, UniProt P46663)
T1 construct: expressed in transfected cells; host or cells: CHO K1 cells
T1 sequence (P46663 1-353): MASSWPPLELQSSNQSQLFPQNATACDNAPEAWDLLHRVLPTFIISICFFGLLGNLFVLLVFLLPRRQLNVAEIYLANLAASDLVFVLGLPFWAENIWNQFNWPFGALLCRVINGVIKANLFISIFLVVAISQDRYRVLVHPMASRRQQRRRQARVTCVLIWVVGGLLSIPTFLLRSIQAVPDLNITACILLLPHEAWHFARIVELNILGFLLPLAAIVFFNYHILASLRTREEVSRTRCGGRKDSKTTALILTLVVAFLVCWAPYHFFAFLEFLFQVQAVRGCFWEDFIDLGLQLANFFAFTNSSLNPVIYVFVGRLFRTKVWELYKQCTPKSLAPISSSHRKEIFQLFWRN
Experiment: Functional investigation on the bradykinin 1 receptor (B1R), FLIPR Ca2+ assay, hB1R cells
Format: cell-based
Conditions: 10 μM test substance; CHO K1 cells with human B1R; agonist Lys-Des-Arg9 bradykinin; % of maximum achievable inhibition
Experimental: The agonistic or antagonistic action of substances can be quantified on the bradykinin 1 receptor (B1R) of the human and rat species with ectopically expressing cell lines (CHO K1 cells) and with the aid of a Ca^2+-sensitive dye (Fluo-4) using a fluorescent imaging plate reader (FLIPR). The indication in % activation is based on the Ca^2+ signal after addition of Lys-Des-Arg^9 bradykinin (0.5 nM) or Des-Arg^9 bradykinin (100 nM). Antagonists lead to a suppression of the Ca^2+ influx following administration of the agonist. The % inhibition in comparison with the maximum achievable inhibition is indicated.
1. Functional Investigation on the Bradykinin 1 Receptor (B1R)
The agonistic or antagonistic action of substances can be determined on the bradykinin 1 receptor (B1R) of the human and rat species with the following assay. According to this assay, the Ca^2+ inflow through the channel is quantified with the aid of a Ca^2+-sensitive dye (Fluo-4 type, Molecular Probes Europe BV, Leiden, Netherlands) in a fluorescent imaging plate reader (FLIPR, Molecular Devices, Sunnyvale, USA).
Chinese hamster ovary cells (CHO K1 cells) which are stably transfected with the human B1R gene (hB1R cells) or the B1R gene of the rat (rB1R cells) are used. For functional investigations these cells are plated-out onto black 96-well plates with a clear base (BD Biosciences, Heidelberg, Germany or Greiner, Frickenhausen, Germany) in a density of 20,000-35,000 cells/well. Overnight the cells are incubated at 37° C. and 5% CO2 in culture medium (hB1R cells: Ham's Nutrient Mixture F12, Gibco Invitrogen GmbH, Karlsruhe, Germany or DMEM, Sigma-Aldrich, Taufkirchen, Germany; rB1R cells: D-MEM/F12, Gibco Invitrogen, Karlsruhe, Germany) with 10 vol. % FBS (foetal bovine serum, Gibco Invitrogen GmbH, Karlsruhe, Germany or PAN Biotech GmbH, Aidenbach, Germany).
On the following day the cells are loaded with 2.13 μM Fluo-4 (Molecular Probes Europe BV, Leiden, Netherlands) in HBSS buffer (Hank's buffered saline solution, Gibco Invitrogen GmbH, Karlsruhe, Germany) with 2.5 mM probenecid (Sigma-Aldrich, Taufkirchen, Germany) and 10 mM HEPES (Sigma-Aldrich, Taufkirchen, Germany) for 60 min at 37° C. The plates are subsequently washed twice with HBSS buffer, and HBSS buffer which additionally contains 0.1% BSA (bovine serum albumin; Sigma-Aldrich, Taufkirchen, Germany), 5.6 mM glucose and 0.05% gelatine (Merck KGaA, Darmstadt, Germany) is added. After a further incubation of 20 minutes at room temperature, the plates are inserted into the FLIPR for Ca^2+ measurement.
Alternatively they are washed with buffer A (15 mM HEPES, 80 mM NaCl, 5 mM KCl, 1.2 mM CaCl2, 0.7 mM MgSO4, 2 g/l glucose, 2.5 mM probenecid) and loaded with buffer A with added 2.5 μM Fluo-4 and 0.025% Pluronic F127 (Sigma-Aldrich, Taufkirchen, Germany). The cells are then washed twice with buffer A and incubated for 30 minutes with buffer A, which additionally contains 0.05% BSA and 0.05% gelatine, at room temperature and then used for Ca^2+ measurement in the FLIPR. The Ca^2+-dependent fluorescence is measured here before and after addition of substances (λex=488 nm, λem=540 nm). The quantification is performed by measuring the highest fluorescence intensity (FC, fluorescence counts) over time.
The FLIPR protocol comprises two additions of substance. Test substances (10 μM) are first pipetted onto the cells and the Ca^2+ inflow is compared with the control (hB1R: Lys-Des-Arg^9 bradykinin>=50 nM; rB1R: Des-Arg^9 bradykinin 10 μM). The value in % activation based on the Ca^2+ signal after addition of Lys-Des-Arg^9 bradykinin (>=50 nM) or Des-Arg^9 bradykinin (10 μM) is obtained therefrom. After incubation for 10-20 minutes, Lys-Des-Arg^9 bradykinin (hB1R) or Des-Arg^9 bradykinin (rB1R) is applied in the EC80 concentration and the inflow of Ca^2+ is likewise determined.
Antagonists lead to a suppression of the Ca^2+ inflow. The % inhibition in comparison with the maximum achievable inhibition is calculated. […]

B1R antagonism, human [10 μM] % inhibition	Structure (SMILES)
100%	COc1cc(C)c(S(=O)(=O)Nc2cccc3ccn(CC(=O)N4CCC5(CC4)CCN(c4ccncc4)CC5)c23)c(C)c1 [Compound G-05, 4-Methoxy-2,6-dimethyl-N-[1-[2-oxo-2-(9-pyridin-4-yl-3,9-diazaspiro[5.5]undecan-3-yl)-ethyl]-1H-indol-7-yl]-benzenesulfonic acid amide]

Same assay, conditions: CHO-K1, 10 μM test substance; CHO K1 cells with human B1R; agonist Lys-Des-Arg9 bradykinin; % of maximum achievable inhibition; read-out: B1R antagonism, human [10 μM] % inhibition

Structure (SMILES)	inhibition at 10 µM
COc1cc(C)c(S(=O)(=O)Nc2ccc3ccn(CC(=O)N4CCC(CCN5CCCC5)CC4)c3c2)c(C)c1 [Compound G-01, 4-Methoxy-2,6-dimethyl-N-[1-[2-oxo-2-[4-(2-pyrrolidin-1-yl-ethyl)-piperidin-1-yl]-ethyl]-1H-indol-6-yl]-benzenesulfonic acid amide]	98%
COc1cc(C)c(S(=O)(=O)Nc2cccc3ccn(CC(=O)N4CCC(CCN5CCCC5)CC4)c23)c(C)c1 [Compound G-02, 4-Methoxy-2,6-dimethyl-N-[1-[2-oxo-2-[4-(2-pyrrolidin-1-yl-ethyl)-piperidin-1-yl]-ethyl]-1H-indol-7-yl]-benzenesulfonic acid amide]	95%
COc1cc(C)c(S(=O)(=O)Nc2cccc3ccn(CC(=O)N4CCC5(CC4)C(=O)NCN5c4ccccc4)c23)c(C)c1 [Compound G-04, 4-Methoxy-2,6-dimethyl-N-[1-[2-oxo-2-(1-oxo-4-phenyl-2,4,8-triazaspiro[4.5]decan-8-yl)-ethyl]-1H-indol-7-yl]-benzenesulfonic acid amide]	68%
COc1cc(C)c(S(=O)(=O)Nc2cccc3ccn(CC(=O)N4CCC(OCCN5CCCC5)(c5cccnc5)CC4)c23)c(C)c1 [Compound G-06, 4-Methoxy-2,6-dimethyl-N-[1-[2-oxo-2-[4-pyridin-3-yl-4-(2-pyrrolidin-1-yl-ethoxy)-piperidin-1-yl]-ethyl]-1H-indol-7-yl]-benzenesulfonic acid amide]	83%
O=C(CCn1ccc2ccc(N3Cc4cccc(Cl)c4C3=O)cc21)N1CCC2(CC1)CCN(c1ccncc1)CC2 [Compound G-07, 7-Chloro-2-[1-[3-oxo-3-(9-pyridin-4-yl-3,9-diazaspiro[5.5]undecan-3-yl)-propyl]-1H-indol-6-yl]-2,3-dihydro-isoindol-1-one]	96%
O=C(Cn1ccc2ccc(N3Cc4cccc(Cl)c4C3=O)cc21)N1CCC2(CC1)CCN(c1ccncc1)CC2 [Compound G-08, 7-Chloro-2-[1-[2-oxo-2-(9-pyridin-4-yl-3,9-diazaspiro[5.5]undecan-3-yl)-ethyl]-1H-indol-6-yl]-2,3-dihydro-isoindol-1-one]	98%
O=C(CCn1ccc2cccc(N3Cc4cccc(Cl)c4C3=O)c21)N1CCC2(CC1)CCN(c1ccncc1)CC2 [Compound G-10, 7-Chloro-2-(1-(3-oxo-3-(9-(pyridin-4-yl)-3,9-diazaspiro[5.5]undecan-3-yl)propyl)-1H-indol-7-yl)isoindolin-1-one]	100%
O=C(Cn1ccc2cccc(N3Cc4cccc(Cl)c4C3=O)c21)N1CCC2(CC1)CCN(c1ccncc1)CC2 [Compound G-11, 7-Chloro-2-(1-(2-oxo-2-(9-(pyridin-4-yl)-3,9-diazaspiro[5.5]undecan-3-yl)ethyl)-1H-indol-7-yl)isoindolin-1-one]	46%
O=C(Cn1ccc2ccc(N3Cc4cccc(Cl)c4C3=O)cc21)N1CCC2(CCN(c3ccncc3)CC2)C1 [Compound G-12, 7-Chloro-2-(1-(2-oxo-2-(8-(pyridin-4-yl)-2,8-diazaspiro[4.5]decan-2-yl)ethyl)-1H-indol-6-yl)isoindolin-1-one]	98%
COc1cc(C)c(S(=O)(=O)Nc2cccc3ccn(CC(=O)N4CCC5(CC4)CC(c4ccncc4)=NO5)c23)c(C)c1 [Compound G-13, 4-Methoxy-2,6-dimethyl-N-(1-(2-oxo-2-(3-(pyridin-4-yl)-1-oxa-2,8-diazaspiro[4.5]dec-2-en-8-yl)ethyl)-1H-indol-7-yl)benzenesulfonic acid amide]	73%

Further lines, results first:

inhibition at 10 µM	Structure (SMILES)
99%	COc1cc(C)c(S(=O)(=O)Nc2cccc3ccn(CC(=O)N4CCC5(CCN(c6ccncc6)CC5)C4)c23)c(C)c1 [Compound G-14, 4-Methoxy-2,6-dimethyl-N-(1-(2-oxo-2-(8-(pyridin-4-yl)-2,8-diazaspiro[4.5]decan-2-yl)ethyl)-1H-indol-7-yl)benzenesulfonic acid amide]
81%	O=C(Cn1ccc2ccc(N3Cc4cccc(Cl)c4C3=O)cc21)N1CCC2(CC1)CC(c1ccncc1)=NO2 [Compound G-15, 7-Chloro-2-(1-(2-oxo-2-(3-(pyridin-4-yl)-1-oxa-2,8-diazaspiro[4.5]dec-2-en-8-yl)ethyl)-1H-indol-6-yl)isoindolin-1-one]
100%	COc1cc(C)c(S(=O)(=O)Nc2cccc3ccn(CC(=O)N4CCC(N5CCc6cc(CN7CCCCC7)ccc6C5)C4)c23)c(C)c1 (stereo not drawn) [Compound G-16, 4-Methoxy-2,6-dimethyl-N-(1-(2-oxo-2-(3-(6-(piperidin-1-ylmethyl)-3,4-dihydroisoquinolin-2(1H)-yl)pyrrolidin-1-yl)ethyl)-1H-indol-7-yl)benzenesulfonic acid amide]
100%	COc1cc(C)c(S(=O)(=O)Nc2cccc3ccn(CC(=O)N4CCC5(CCN(c6ccncc6)C5)C4)c23)c(C)c1 (stereo not drawn) [Compound G-17, 4-Methoxy-2,6-dimethyl-N-(1-(2-oxo-2-(7-(pyridin-4-yl)-2,7-diazaspiro[4.4]nonan-2-yl)ethyl)-1H-indol-7-yl)benzenesulfonic acid amide]
99%	COc1cc(C)c(S(=O)(=O)Nc2cccc3ccn(CC(=O)N4CCC5(CCC(N6CCC6)CC5)CC4)c23)c(C)c1 [Compound G-18, N-(1-(2-(9-(azetidin-1-yl)-3-azaspiro[5.5]undecan-3-yl)-2-oxoethyl)-1H-indol-7-yl)-4-methoxy-2,6-dimethylbenzenesulfonic acid amide]
97%	O=C(Cn1ccc2ccc(N3Cc4cccc(Cl)c4C3=O)cc21)N1CCC2(CCC(Oc3ccncc3)CC2)CC1 [Compound G-19, 7-Chloro-2-(1-(2-oxo-2-(9-(pyridin-4-yloxy)-3-azaspiro[5.5]undecan-3-yl)ethyl)-1H-indol-6-yl)isoindolin-1-one]
43%	O=C(Cn1ccc2ccc(N3Cc4cccc(Cl)c4C3=O)cc21)N1CCC2(CCC(N3CC(F)(F)C3)CC2)CC1 [Compound G-20, 7-Chloro-2-(1-(2-(9-(3,3-difluoroazetidin-1-yl)-3-azaspiro[5.5]undecan-3-yl)-2-oxoethyl)-1H-indol-6-yl)isoindolin-1-one]
